Molecules are shown by their SMILES. Values after ≈ are worked out from the molar mass of the structure shown. “Also recorded” adds a separate entry of the source. Like-named read-outs stand apart in the source and are kept apart here.

For one assay, the system named is Mab ATCC 19977. The assay can be described thus: MIC broth microdilution assay against Mab ATCC 19977. The conditions noted are these: for MIC: Mycobacteroides abscessus, read-out: MIC Mab ATCC 19977. The assay is classed as cell-based, Mycobacteroides abscessus.
A further assay concerns Mtb H37Rv. The experiment in a line: MIC broth microdilution assay against Mtb H37Rv (with and without clavulanate). Conditions: for increase of MIC relative to T405: Mtb H37Rv without clavulanate; for MIC: Mycobacterium tuberculosis, H37RV, 336 h, read-out: MIC Mtb H37Rv. Format: cell-based, Mycobacterium tuberculosis. (In general: In broth dilution the organism is exposed to a series of concentrations in liquid medium.)

The target in a further assay is T1, LdtMt2 (Mycobacterium tuberculosis, UniProt I6Y9J2).
T1 construct: made in house
T1 sequence (I6Y9J2 56-408): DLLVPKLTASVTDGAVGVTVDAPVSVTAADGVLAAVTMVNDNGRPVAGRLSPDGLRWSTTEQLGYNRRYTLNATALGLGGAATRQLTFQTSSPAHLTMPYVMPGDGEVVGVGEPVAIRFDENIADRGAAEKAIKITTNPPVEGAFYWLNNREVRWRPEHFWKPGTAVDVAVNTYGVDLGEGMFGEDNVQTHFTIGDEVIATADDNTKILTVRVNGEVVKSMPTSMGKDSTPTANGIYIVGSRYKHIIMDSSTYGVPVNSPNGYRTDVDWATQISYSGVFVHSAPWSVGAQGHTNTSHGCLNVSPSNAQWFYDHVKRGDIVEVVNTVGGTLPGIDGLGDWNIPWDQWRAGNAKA
The experiment in a line: LdtMt2 adduct formation by intact-protein UPLC-HRMS. Format: binding. The conditions noted are these: penem 20 μM, 1 h, 25 mM HEPES pH 7.0, 20° C.

For a further assay, the target named is T2, DacB2 (Mycobacterium tuberculosis, UniProt I6Y204).
T2 construct: made in house
T2 sequence (I6Y204 28-291): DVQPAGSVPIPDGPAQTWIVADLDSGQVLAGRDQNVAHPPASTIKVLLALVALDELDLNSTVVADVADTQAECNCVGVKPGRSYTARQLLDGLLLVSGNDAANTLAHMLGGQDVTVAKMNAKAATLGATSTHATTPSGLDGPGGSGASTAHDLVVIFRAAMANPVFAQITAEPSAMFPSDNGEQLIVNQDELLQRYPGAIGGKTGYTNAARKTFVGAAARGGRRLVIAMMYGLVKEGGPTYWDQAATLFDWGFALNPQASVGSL
The assay can be described thus: DacB2 adduct formation and stability comparison by intact-protein UPLC-HRMS. Format: binding. Conditions: for DacB2 adduct formation: 20 μM drug, 1 h.

The mark [1] stands for this setting: ATCC19977, Middlebrook 7H9, 30° C., 72 h.
Where [2] appears, read: without clavulanate, Middlebrook 7H9, 37° C., 14 d.
Setting [3] is: 24 h after removal of free drug, 20° C.

`C[C@@H](O)[C@H]1C(=O)N2C(C(=O)O)=C(SC3CN(c4nc5ccccc5n4C)C3)S[C@H]12` [Compound T418, (5R,6S)-6-((R)-1-hydroxyethyl)-3-((1-(1-methyl-1H-benzo[d]imidazol-2-yl)azetidin-3-yl)thio)-7-oxo-4-thia-1-azabicyclo[3.2.0]hept-2-ene-2-carboxylic acid]: the MIC (in general, the least concentration at which growth counts as inhibited) was 64 µg/mL (≈ 148 µM) with Mab ATCC 19977 (setting [1]) and 2 µg/mL in the assay with Mtb H37Rv (setting [2]). The “increase of MIC relative to T405” value in the assay with Mtb H37Rv is given as “four-fold”. Also, in the assay on Mtb H37Rv (Middlebrook 7H9, 37° C., 14 d), the “MIC Mtb H37Rv with Clavulanate (5 μg/ml)” value amounted to 0.5 µg/mL.
For `C[C@@H](O)[C@H]1C(=O)N2C(C(=O)O)=C(SC3CN(C4=NCCCS4)C3)S[C@H]12` [Compound T420, (5R,6S)-3-((1-(5,6-dihydro-4H-1,3-thiazin-2-yl)azetidin-3-yl)thio)-6-((R)-1-hydroxyethyl)-7-oxo-4-thia-1-azabicyclo[3.2.0]hept-2-ene-2-carboxylic acid], in that order: 16 µg/mL (≈ 39.8 µM), 2 µg/mL, “two dilutions” and 0.5 µg/mL.
For `CCN1CC(SC2=C(C(=O)O)N3C(=O)[C@H]([C@@H](C)O)[C@H]3S2)C1` [Compound T421, (5R,6S)-3-((1-ethylazetidin-3-yl)thio)-6-((R)-1-hydroxyethyl)-7-oxo-4-thia-1-azabicyclo[3.2.0]hept-2-ene-2-carboxylic acid], the results for the MIC with Mab ATCC 19977 (setting [1]) and in the assay on Mtb H37Rv (setting [2]) were 4 µg/mL (≈ 12.1 µM) and 1 µg/mL, respectively. Besides, the “MIC Mtb H37Rv with Clavulanate (5 μg/ml)” value in the assay on Mtb H37Rv (Middlebrook 7H9, 37° C., 14 d) worked out at 0.5 µg/mL.
Turning to `C[C@@H](O)[C@H]1C(=O)N2C(C(=O)O)=C(SC3CNC3)S[C@H]12` [Compound T422, (5R,6S)-3-(azctidin-3-ylthio)-6-((R)-1-hydroxyethyl)-7-oxo-4-thia-1-azabicyclo[3.2.0]hept-2-ene-2-carboxylic acid], the “weaker activity (MIC) relative to T405” value with Mab ATCC 19977 (Mab ATCC 19977) is given as 2 fold. Also, the MIC in the assay on Mab ATCC 19977 (ATCC19977, 72 h) was found to be 4 µg/mL (≈ 13.2 µM); with Mtb H37Rv it was 0.5 µg/mL. In addition, in the assay with Mtb H37Rv (Middlebrook 7H9, 37° C., 14 d), the “MIC Mtb H37Rv with Clavulanate (5 μg/ml)” value amounted to 0.5 µg/mL.
As for `C[C@@H](O)[C@H]1C(=O)N2C(C(=O)O)=C(SC3CN(c4nc5ccccc5s4)C3)S[C@H]12` [Compound T423, (5R,6S)-3-((1-(benzo[d]thiazol-2-yl)azetidin-3-yl)thio)-6-((R)-1-hydroxyethyl)-7-oxo-4-thia-1-azabicyclo[3.2.0]hept-2-ene-2-carboxylic acid], the MIC came to 64 µg/mL (≈ 147 µM) with Mab ATCC 19977 (setting [1]) and 8 µg/mL in the assay on Mtb H37Rv (setting [2]). Besides, the “increase of MIC relative to T405” value with Mtb H37Rv is reported as 16 fold. For the same compound, the “MIC Mtb H37Rv with Clavulanate (5 μg/ml)” value with Mtb H37Rv (Middlebrook 7H9, 37° C., 14 d) amounted to 2 µg/mL.
In the assay with Mab ATCC 19977 (Mab ATCC 19977), `C[C@@H](O)[C@H]1C(=O)N2C(C(=O)O)=C(S[C@@H]3CCNC3)S[C@H]12` [Compound T425, (5R,6S)-6-((R)-1-hydroxyethyl)-7-oxo-3-(((R)-pyrrolidin-3-yl)thio)-4-thia-1-azabicyclo[3.2.0]hept-2-ene-2-carboxylic acid] registered an MIC against Mab of 1 µg/mL (≈ 3.16 µM). Besides, the MIC in the assay with Mab ATCC 19977 (setting [1]) worked out at 2 µg/mL (≈ 6.32 µM); in the assay with Mtb H37Rv (setting [2]), 0.5 µg/mL. Further, in the assay on Mtb H37Rv (Middlebrook 7H9, 37° C., 14 d), the “MIC Mtb H37Rv with Clavulanate (5 μg/ml)” value is 0.25 µg/mL.
Compound `C[C@@H](O)[C@H]1C(=O)N2C(C(=O)O)=C(S[C@H]3CCNC3)S[C@H]12` [Compound T426, (5R,6S)-6-((R)-1-hydroxyethyl)-7-oxo-3-(((S)-pyrrolidin-3-yl)thio)-4-thia-1-azabicyclo[3.2.0]hept-2-ene-2-carboxylic acid] yielded an MIC against Mab against Mab ATCC 19977 (Mab ATCC 19977) of 1 µg/mL (≈ 3.16 µM). Also, the MIC is 2 µg/mL (≈ 6.32 µM) with Mab ATCC 19977 (setting [1]) and 0.5 µg/mL in the assay on Mtb H37Rv (setting [2]). In addition, at LdtMt2, the “covalent LdtMt2 adduct formed” value is on record as “formed a +86 Da LdtMt2 adduct; also recorded: fragmentation to a M+86 Da 3-hydroxybutyryl group”. The DacB2 adduct formation result at DacB2 (20° C., pH 7.0) is reported as “formed intact adducts”. Besides, on DacB2 (setting [3]), the “DacB2 adduct stability (in words)” value was “remained completely bound; also recorded: fully bound; also recorded: stable for at least 24 h after drug removal”. Besides, the “MIC Mtb H37Rv with Clavulanate (5 μg/ml)” value in the assay on Mtb H37Rv (Middlebrook 7H9, 37° C., 14 d) was found to be 0.25 µg/mL.
Take `C[C@@H](O)[C@H]1C(=O)N2C(C(=O)O)=C(SC3CCNCC3)S[C@H]12` [Compound T427, (5R,6S)-6-((R)-1-hydroxyethyl)-7-oxo-3-(piperidin-4-ylthio)-4-thia-1-azabicyclo[3.2.0]hept-2-ene-2-carboxylic acid]: the MIC in the assay on Mab ATCC 19977 (ATCC19977, 72 h) worked out at 4 µg/mL (≈ 12.1 µM). Besides, in the assay with Mtb H37Rv, the “increase of MIC relative to T405” value is recorded as “two-fold” and the MIC came out at 1 µg/mL. In the assay with Mtb H37Rv (Middlebrook 7H9, 37° C., 14 d), the “MIC Mtb H37Rv with Clavulanate (5 μg/ml)” value is 0.5 µg/mL.
Regarding `C[C@@H](O)[C@H]1C(=O)N2C(C(=O)O)=C(SCC3CNC3)S[C@H]12` [Compound T428, (5R,6S)-3-((azetidin-3-ylmethyl)thio)-6-((R)-1-hydroxyethyl)-7-oxo-4-thia-1-azabicyclo[3.2.0]hept-2-ene-2-carboxylic acid], the MIC with Mab ATCC 19977 (setting [1]) worked out at 8 µg/mL (≈ 25.3 µM); in the assay with Mtb H37Rv (setting [2]) it was 0.5 µg/mL. Besides, at LdtMt2, the “covalent LdtMt2 adduct formed” value is listed as “formed a +86 Da LdtMt2 adduct; also recorded: fragmentation to a M+86 Da 3-hydroxybutyryl group”. Besides, the DacB2 adduct formation entry at DacB2 (20° C., pH 7.0) is “formed intact adducts”. At DacB2 (setting [3]), the “DacB2 adduct stability (in words)” value is given as “partially hydrolyzed”. Moreover, the “inhibitor retained on DacB2 (percent bound)” value on DacB2 (24 h after removal of free drug, 20° C., pH 7.0) was found to be 86%. Further, the “loss of drug from DacB2 adduct” value on DacB2 (24 h after washing away free drug) turned out to be 14%. Besides, the “MIC Mtb H37Rv with Clavulanate (5 μg/ml)” value with Mtb H37Rv (Middlebrook 7H9, 37° C., 14 d) turned out to be 0.25 µg/mL.
Regarding `C[C@@H](O)[C@H]1C(=O)N2C(C(=O)O)=C(SCC3CCNCC3)S[C@H]12` [Compound T429, (5R,6S)-6-((R)-1-hydroxyethyl)-7-oxo-3-((piperidin-4-ylmethyl)thio)-4-thia-1-azabicyclo[3.2.0]hept-2-ene-2-carboxylic acid], the figures for the MIC with Mab ATCC 19977 (setting [1]) and with Mtb H37Rv (setting [2]) were 4 µg/mL (≈ 11.6 µM) and 0.5 µg/mL, respectively. For the same compound, the “MIC Mtb H37Rv with Clavulanate (5 μg/ml)” value in the assay with Mtb H37Rv (Middlebrook 7H9, 37° C., 14 d) turned out to be 0.25 µg/mL.
As to `C[C@@H](O)[C@H]1C(=O)N2C(C(=O)O)=C(SC3CN(C4CCOCC4)C3)S[C@H]12` [Compound T430, (5R,6S)-6-((R)-1-hydroxyethyl)-7-oxo-3-((1-(tetrahydro-2H-pyran-4-yl)azetidin-3-yl)thio)-4-thia-1-azabicyclo[3.2.0]hept-2-ene-2-carboxylic acid], the MIC in the assay with Mab ATCC 19977 (setting [1]) came to 4 µg/mL (≈ 10.3 µM); in the assay with Mtb H37Rv (setting [2]), 4 µg/mL.
As for `CCN1CC[C@@H](SC2=C(C(=O)O)N3C(=O)[C@H]([C@@H](C)O)[C@H]3S2)C1` [Compound T431, (5R,6S)-3-(((R)-1-ethylpyrrolidin-3-yl)thio)-6-((R)-1-hydroxyethyl)-7-oxo-4-thia-1-azabicyclo[3.2.0]hept-2-ene-2-carboxylic acid], the MIC was found to be 4 µg/mL (≈ 11.6 µM) in the assay with Mab ATCC 19977 (setting [1]) and 4 µg/mL in the assay with Mtb H37Rv (setting [2]).
Turning to `C[C@@H](O)[C@H]1C(=O)N2C(C(=O)O)=C(S[C@@H]3CCN(C4CCOCC4)C3)S[C@H]12` [Compound T432, (5R,6S)-6-((R)-1-hydroxyethyl)-7-oxo-3-(((R)-1-(tetrahydro-2H-pyran-4-yl)pyrrolidin-3-yl)thio)-4-thia-1-azabicyclo[3.2.0]hept-2-ene-2-carboxylic acid], the MIC in the assay with Mab ATCC 19977 (setting [1]) is 4 µg/mL (≈ 9.99 µM); in the assay with Mtb H37Rv (setting [2]) it was 4 µg/mL.
As to `C[C@@H](O)[C@H]1C(=O)N2C(C(=O)O)=C(SCCN=CN)C[C@H]12` [Imipenem, reference compound], the “MIC Mab ATCC 19977” value in the assay with Mab ATCC 19977 (Middlebrook 7H9, 30° C., 72 h) was found to be 8 µg/mL (≈ 26.7 µM). The MIC with Mab ATCC 19977 (setting [1]) was determined as 8 µg/mL (≈ 26.7 µM).
In the case of `C[C@@H](O)[C@H]1C(=O)N2C(C(=O)O)=C(S[C@@H]3CN[C@H](C(=O)N(C)C)C3)[C@H](C)[C@H]12` [Meropenem, reference compound], at DacB2 (20° C., pH 7.0), the DacB2 adduct formation result is “fully reacts with DacB2”. For the same compound, on DacB2 (setting [3]), the “DacB2 adduct stability (in words)” value was “stable after removal of drug for 24 h”. For the same compound, on DacB2 (24 h after removal of free drug, 20° C., listed as meropenem), the “DacB2 adduct stability (in words)” value was “remained completely bound; also recorded: fully bound”. Further, in the assay with Mtb H37Rv (setting [2]), the MIC was found to be 8 µg/mL and the “MIC Mtb H37Rv” value was found to be 8 µg/mL. Further, the “MIC Mtb H37Rv with Clavulanate (5 μg/ml)” value in the assay on Mtb H37Rv (Middlebrook 7H9, 37° C., 14 d) was found to be 0.5 µg/mL.

Source of the values: patent US20250282796A1, “PENEM ANTIBACTERIALS AGAINST MYCOBACTERIAL PATHOGENS AND D,D- AND L,D TRANSPEPTIDASES” (The Johns Hopkins University, priority 2022, published 2025).
